Data reported in patent US9382255B2, “Substituted pyrrolopyrimidinylamino-benzothiazolones as MKNK kinase inhibitors” (BAYER PHARMA AKTIENGESELLSCHAFT, priority 2012, dated 2016).

Target: T1, human full-length MKNK1 (Homo sapiens, UniProt Q9BUB5, T385D)
T1 construct: GST (N); purchased Carna Biosciences 02-145; host or cells: insect cells (baculovirus expression system)
Assay: MKNK1 kinase high ATP assay (TR-FRET)
Type: biochemical
Conditions: high ATP (2 mM final), 15 min preincubation with enzyme, GST-MKNK1 (T344D)
Protocol: MKNK1 Kinase High ATP Assay
MKNK1-inhibitory activity at high ATP of compounds of the present invention after their preincubation with MKNK1 was quantified employing the TR-FRET-based MKNK1 high ATP assay as described in the following paragraphs.
A recombinant fusion protein of Glutathione-S-Transferase (GST, N-terminally) and human full-length MKNK1 (amino acids 1-424 and T344D of accession number BAA 19885.1), expressed in insect cells using baculovirus expression system and purified via glutathione sepharose affinity chromatography, was purchased from Carna Biosciences (product no 02-145) and used as enzyme. As substrate for the kinase reaction the biotinylated peptide biotin-Ahx-IKKRKLTRRKSLKG (C-terminus in amide form) was used, which can be purchased e.g. from the company Biosyntan (Berlin-Buch, Germany).
For the assay 50 nL of a 100 fold concentrated solution of the test compound in DMSO was pipetted into a black low volume 384 well microtiter plate (Greiner Bio-One, Frickenhausen, Germany), 2 μL of a solution of MKNK1 in aqueous assay buffer [50 mM HEPES pH 7.5, 5 mM MgCL2, 1.0 mM dithiothreitol, 0.005% (v/v) Nonidet-P40 (Sigma)] was added and the mixture was incubated for 15 min at 22° C. to allow pre-binding of the test compounds to the enzyme before the start of the kinase reaction. Then the kinase reaction was started by the addition of 3 μL of a solution of adenosine-tri-phosphate (ATP, 3.3 mM=>final conc. in the 5 μL assay volume is 2 mM) and substrate (0.1 μM=>final conc. in the 5 μL assay volume is 0.06 μM) in assay buffer and the resulting mixture was incubated for a reaction time of 30 min at 22° C. The concentration of MKNK1 was adjusted depending of the activity of the enzyme lot and was chosen appropriate to have the assay in the linear range, typical concentrations were in the range of 0.003 μg/mL. The reaction was stopped by the addition of 5 μL of a solution of TR-FRET detection reagents (5 nM streptavidine-XL665 [Cisbio Bioassays, Codolet, France] and 1 nM anti-ribosomal protein S6 (pSer236)-antibody from Invitrogen [#44921G] and 1 nM LANCE EU-W1024 Labeled ProteinG [Perkin-Elmer, product no. AD0071]) in an aqueous EDTA-solution (100 mM EDTA, 0.1% (w/v) bovine serum albumin in 50 mM HEPES pH 7.5).
The resulting mixture was incubated for 1 h at 22° C. to allow the formation of complex between the phosphorylated biotinylated peptide and the detection reagents. Subsequently the amount of phosphorylated substrate was evaluated by measurement of the resonance energy transfer from the Eu-chelate to the streptavidine-XL. Therefore, the fluorescence emissions at 620 nm and 665 nm after excitation at 350 nm were measured in a TR-FRET reader, e.g. a Rubystar (BMG Labtechnologies, Offenburg, Germany) or a Viewlux (Perkin-Elmer). The ratio of the emissions at 665 nm and at […] was taken as the measure for the amount of phosphorylated substrate. The data were normalised (enzyme reaction without inhibitor=0% inhibition, all other assay components but no enzyme=100% inhibition).

T1 sequence (Q9BUB5 1-424 isoform Q9BUB5-2 T344D): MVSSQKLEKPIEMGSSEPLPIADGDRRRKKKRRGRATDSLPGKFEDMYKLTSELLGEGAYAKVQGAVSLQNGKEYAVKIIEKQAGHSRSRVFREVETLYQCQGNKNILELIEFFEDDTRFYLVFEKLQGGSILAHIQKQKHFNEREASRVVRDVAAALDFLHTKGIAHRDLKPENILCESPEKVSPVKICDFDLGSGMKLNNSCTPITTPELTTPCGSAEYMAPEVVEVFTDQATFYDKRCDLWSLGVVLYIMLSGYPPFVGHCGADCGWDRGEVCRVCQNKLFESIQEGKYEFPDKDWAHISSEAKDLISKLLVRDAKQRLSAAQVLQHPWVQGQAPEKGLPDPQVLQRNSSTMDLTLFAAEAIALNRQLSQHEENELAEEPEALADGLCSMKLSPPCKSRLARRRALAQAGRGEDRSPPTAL

SMILES | IC50 [nM]
O=C(O)c1c[nH]c2ncnc(Nc3ccc4[nH]c(=O)sc4c3)c12 [Example 3, 4-[(2-Oxo-2,3-dihydro-1,3-benzothiazol-6-yl)amino]-7H-pyrrolo[2,3-d]pyrimidine-5-carboxylic acid] | 7
O=c1[nH]c2ccc(Nc3ncnc4[nH]ncc34)cc2s1 [Example 7, 6-(1H-pyrazolo[3,4-d]pyrimidin-4-ylamino)-1,3-benzothiazol-2(3H)-one] | 44
O=c1[nH]c2ccc(Nc3ncnc4[nH]c(Br)cc34)cc2s1 [Example 8, 6-[(6-Bromo-7H-pyrrolo[2,3-d]pyrimidin-4-yl)amino]-1,3-benzothiazol-2(3H)-one] | 5
COc1cc2[nH]c(=O)sc2cc1Nc1ncnc2[nH]c(C(=O)O)cc12 [Example 26, 4-[(5-Methoxy-2-oxo-2,3-dihydro-1,3-benzothiazol-6-yl)amino]-7H-pyrrolo[2,3-d]pyrimidine-6-carboxylic acid] | 21
CCOC(=O)c1cc2c(Nc3ccc4[nH]c(=O)sc4c3)ncnc2[nH]1 [Example 10, Ethyl 4-[(2-oxo-2,3-dihydro-1,3-benzothiazol-6-yl)amino]-7H-pyrrolo[2,3-d]pyrimidine-6-carboxylate] | 2
O=c1[nH]c2ccc(Nc3ncnc4[nH]ccc34)cc2s1 [Example 6, 6-(7H-Pyrrolo[2,3-d]pyrimidin-4-ylamino)-1,3-benzothiazol-2(3H)-one] | 19
O=c1[nH]c2ccc(Nc3ncnc4[nH]c(Cl)cc34)cc2s1 [Example 16, 6-[(6-Chloro-7H-pyrrolo[2,3-d]pyrimidin-4-yl)amino]-1,3-benzothiazol-2(3H)-one] | 11
O=C(O)c1cc2c(Nc3ccc4[nH]c(=O)sc4c3)ncnc2[nH]1 [Example 30, 4-[(2-Oxo-2,3-dihydro-1,3-benzothiazol-6-yl)amino]-7H-pyrrolo[2,3-d]pyrimidine-6-carboxylic acid] | 36
COc1cc2[nH]c(=O)sc2cc1Nc1ncnc2[nH]ccc12 [Example 19, 5-Methoxy-6-(7H-pyrrolo[2,3-d]pyrimidin-4-ylamino)-1,3-benzothiazol-2(3H)-one] | 11
O=c1[nH]c2ccc(Nc3ncnc4[nH]cnc34)cc2s1 [Example 9, 6-(9H-Purin-6-ylamino)-1,3-benzothiazol-2(3H)-one] | 11
N#Cc1c[nH]c2ncnc(Nc3ccc4[nH]c(=O)sc4c3)c12 [Example 12, 4-[(2-Oxo-2,3-dihydro-1,3-benzothiazol-6-yl)amino]-7H-pyrrolo[2,3-d]pyrimidine-5-carbonitrile] | 13
Cc1ccc(S(=O)(=O)c2cc3c(Nc4ccc5[nH]c(=O)sc5c4)ncnc3[nH]2)cc1 [Example 24, 6-({6-[(4-Methylphenyl)sulfonyl]-7H-pyrrolo[2,3-d]pyrimidin-4-yl}amino)-1,3-benzothiazol-2(3H)-one] | 5
O=C(c1cc2c(Nc3ccc4[nH]c(=O)sc4c3)ncnc2[nH]1)N1CCCCC1 [Example 36, 6-{[6-(Piperidin-1-ylcarbonyl)-7H-pyrrolo[2,3-d]pyrimidin-4-yl]amino}-1,3-benzothiazol-2(3H)-one] | 14
CN(C)C1CCN(C(=O)c2cc3c(Nc4ccc5[nH]c(=O)sc5c4)ncnc3[nH]2)CC1 [Example 31, 6-[(6-{[4-(Dimethylamino)piperidin-1-yl]carbonyl}-7H-pyrrolo[2,3-d]pyrimidin-4-yl)amino]-1,3-benzothiazol-2(3H)-one] | 40
Cc1cc2c(Nc3ccc4[nH]c(=O)sc4c3)ncnc2[nH]1 [Example 14, 6-[(6-Methyl-7H-pyrrolo[2,3-d]pyrimidin-4-yl)amino]-1,3-benzothiazol-2(3H)-one] | 25
O=c1[nH]c2ccc(Nc3ncnc4[nH]c(S(=O)(=O)c5ccc(Cl)cc5)cc34)cc2s1 [Example 23, 6-({6-[(4-Chlorophenyl)sulfonyl]-7H-pyrrolo[2,3-d]pyrimidin-4-yl}amino)-1,3-benzothiazol-2(3H)-one] | 12
O=c1[nH]c2ccc(Nc3ncnc4[nH]c(CCCO)cc34)cc2s1 [Example 17, 6-{[6-(3-Hydroxypropyl)-7H-pyrrolo[2,3-d]pyrimidin-4-yl]amino}-1,3-benzothiazol-2(3H)-one] | 9
CN1CCN(C(=O)c2c[nH]c3ncnc(Nc4ccc5[nH]c(=O)sc5c4)c23)CC1 [Example 4, 6-({5-[(4-Methylpiperazin-1-yl)carbonyl]-7H-pyrrolo[2,3-d]pyrimidin-4-yl}amino)-1,3-benzothiazol-2(3H)-one] | 19
COc1cc2[nH]c(=O)sc2cc1Nc1ncnc2[nH]cc(F)c12 [Example 28, 6-[(5-Fluoro-7H-pyrrolo[2,3-d]pyrimidin-4-yl)amino]-5-methoxy-1,3-benzothiazol-2(3H)-one] | 1

Second part, the compound after the results:

IC50 [nM] | SMILES
4 | CCOC(=O)c1cc2c(Nc3cc4sc(=O)[nH]c4cc3OC)ncnc2[nH]1 [Example 25, Ethyl 4-[(5-methoxy-2-oxo-2,3-dihydro-1,3-benzothiazol-6-yl)amino]-7H-pyrrolo[2,3-d]pyrimidine-6-carboxylate]
4 | CC(C)NC(=O)c1c[nH]c2ncnc(Nc3ccc4[nH]c(=O)sc4c3)c12 [Example 5, N-Isopropyl-4-[(2-oxo-2,3-dihydro-1,3-benzothiazol-6-yl)amino]-7H-pyrrolo[2,3-d]pyrimidine-5-carboxamide]
32 | CC(C)Cc1[nH]c2ncnc(Nc3ccc4[nH]c(=O)sc4c3)c2c1C(C)C [Example 21, 6-[(6-Isobutyl-5-isopropyl-7H-pyrrolo[2,3-d]pyrimidin-4-yl)amino]-1,3-benzothiazol-2(3H)-one]
27 | O=c1[nH]c2ccc(Nc3ncnc4[nH]cc(F)c34)cc2s1 [Example 2, 6-[(5-Fluoro-7H-pyrrolo[2,3-d]pyrimidin-4-yl)amino]-1,3-benzothiazol-2(3H)-one]
27 | CCc1[nH]c2ncnc(Nc3ccc4[nH]c(=O)sc4c3)c2c1C [Example 1, 6-[(6-Ethyl-5-methyl-7H-pyrrolo[2,3-d]pyrimidin-4-yl)amino]-1,3-benzothiazol-2(3H)-one]
6 | O=c1[nH]c2ccc(Nc3ncnc4[nH]c(C#CCO)cc34)cc2s1 [Example 11, 6-{[6-(3-Hydroxyprop-1-yn-1-yl)-7H-pyrrolo[2,3-d]pyrimidin-4-yl]amino}-1,3-benzothiazol-2(3H)-one]
39 | C[C@@H]1COCCN1C(=O)c1cc2c(Nc3ccc4[nH]c(=O)sc4c3)ncnc2[nH]1 [Example 34]
6 | O=c1[nH]c2ccc(Nc3ncnc4[nH]cc(Br)c34)cc2s1 [Example 27, 6-[(5-Bromo-7H-pyrrolo[2,3-d]pyrimidin-4-yl)amino]-1,3-benzothiazol-2(3H)-one]
6 | CCc1[nH]c2ncnc(Nc3cc4sc(=O)[nH]c4cc3OC)c2c1C [Example 13, 6-[(6-Ethyl-5-methyl-7H-pyrrolo[2,3-d]pyrimidin-4-yl)amino]-5-methoxy-1,3-benzothiazol-2(3H)-one]
24 | O=C(c1[nH]c2ncnc(Nc3ccc4[nH]c(=O)sc4c3)c2c1Br)N1CCCCC1 [Example 33, 6-{[5-Bromo-6-(piperidin-1-ylcarbonyl)-7H-pyrrolo[2,3-d]pyrimidin-4-yl]amino}-1,3-benzothiazol-2(3H)-one]
18 | COc1cc2[nH]c(=O)sc2cc1Nc1ncnc2[nH]c(Br)cc12 [Example 18, 6-[(6-Bromo-7H-pyrrolo[2,3-d]pyrimidin-4-yl)amino]-5-methoxy-1,3-benzothiazol-2(3H)-one]
15 | CN(C)C(=O)c1c[nH]c2ncnc(Nc3ccc4[nH]c(=O)sc4c3)c12 [Example 20, N,N-dimethyl-4-[(2-oxo-2,3-dihydro-1,3-benzothiazol-6-yl)amino]-7H-pyrrolo[2,3-d]pyrimidine-5-carboxamide]
5 | CCCc1[nH]c2ncnc(Nc3cc4sc(=O)[nH]c4cc3OC)c2c1CC [Example 29, 6-[(5-Ethyl-6-propyl-7H-pyrrolo[2,3-d]pyrimidin-4-yl)amino]-5-methoxy-1,3-benzothiazol-2(3H)-one]
